{"source": "paper PMC5063900", "about": "“A phase 1 study of the safety, tolerability, pharmacokinetics, and pharmacodynamics of TAK-063, a selective PDE10A inhibitor” (Psychopharmacology, 2016)", "key": {"[1]": {"details": "stated in discussion without method or reference; cited from earlier work"}, "[2]": {"test": "CNS Vital Signs (CNSVS) computerized cognition battery", "assay_type": "in vivo, human", "details": "2 h postdose, fasting", "procedure": "Cognitive flexibility, attention, executive function, memory, reasoning, motor control, psychomotor speed, reaction time, and information processing speed were assessed predose and at 2 and 6 h following TAK-063 treatment using the CNSVS computerized cognition battery. The CNSVS cognition battery is a well-validated, sensitive measure and included the following tests: verbal and visual memory (VBM and VIM) tests, finger-tapping test, symbol digit coding test, Stroop test, shifting attention test, the nonverbal reasoning test, and the 4-part continuous performance test (Gualtieri and Johnson [2006]). Standardized domain scores for cognitive flexibility, composite memory, executive functioning, processing speed, psychomotor speed, reaction time, reasoning, sustained attention, verbal memory, visual memory, and working memory were reported. In all domains, a decrease in the standardized domain score is indicative of impairment.\nAll statistical analyses were generated using SAS Version 9.2 (SAS, Cary, NC, USA). The PK parameters were derived using non-compartmental methods with WinNonlin Enterprise Version 6.3 (Pharsight Corp., Mountain View, CA, USA). Frequency or descriptive statistics were used for summary of data. Where indicated, percent coefficient of variation was included in the summary of continuous data. All statistical tests were 2-tailed at α = 0.05 level for significance unless otherwise stated. A power model was used to evaluate dose proportionality by race for fasted subjects; in the event of no observed race effect, dose proportionality was assessed for all subjects. To evaluate the food effect, a paired t test was performed on T max and natural log-transformed C max, and AUCs. An ANCOVA model with baseline scores and race as covariates was used to assess the effects of TAK-063 on CNSVS domain scores."}}, "data": [{"smiles": "COc1cn(-c2ccc(-n3cccn3)cc2F)nc(-c2ccnn2-c2ccccc2)c1=O", "note": "[TAK-063]", "values": [{"measurement": "Aqueous solubility", "setting": "[1]", "value": "low"}, {"measurement": "Cognitive flexibility domain score, Difference (TAK-063 LS mean - placebo LS mean, change from baseline)", "setting": "[2]; 3 mg", "value": 1.3}, {"measurement": "Composite memory domain score, Difference (TAK-063 LS mean - placebo LS mean, change from baseline)", "setting": "[2]; 3 mg", "value": -7.9}, {"measurement": "Executive functioning domain score, Difference (TAK-063 LS mean - placebo LS mean, change from baseline)", "setting": "[2]; 3 mg", "value": 0.4}, {"measurement": "Processing speed domain score, Difference (TAK-063 LS mean - placebo LS mean, change from baseline)", "setting": "[2]; 3 mg", "value": 2.2}, {"measurement": "Psychomotor speed domain score, Difference (TAK-063 LS mean - placebo LS mean, change from baseline)", "setting": "[2]; 3 mg", "value": -1.5}, {"measurement": "Reaction time domain score, Difference (TAK-063 LS mean - placebo LS mean, change from baseline)", "setting": "[2]; 3 mg", "value": 4.1}, {"measurement": "Reasoning domain score, Difference (TAK-063 LS mean - placebo LS mean, change from baseline)", "setting": "[2]; 3 mg", "value": 5.7}, {"measurement": "Sustained attention domain score, Difference (TAK-063 LS mean - placebo LS mean, change from baseline)", "setting": "[2]; 3 mg", "value": 4.6}, {"measurement": "Verbal memory domain score, Difference (TAK-063 LS mean - placebo LS mean, change from baseline)", "setting": "[2]; 3 mg", "value": 0.9}, {"measurement": "Visual memory domain score, Difference (TAK-063 LS mean - placebo LS mean, change from baseline)", "setting": "[2]; 3 mg", "value": -10.3}, {"measurement": "Working memory domain score, Difference (TAK-063 LS mean - placebo LS mean, change from baseline)", "setting": "[2]; 3 mg", "value": 5.3}, {"measurement": "Cognitive flexibility domain score, Difference (TAK-063 LS mean - placebo LS mean, change from baseline)", "setting": "[2]; 10 mg", "value": -3.1}, {"measurement": "Composite memory domain score, Difference (TAK-063 LS mean - placebo LS mean, change from baseline)", "setting": "[2]; 10 mg", "value": -5.2}, {"measurement": "Executive functioning domain score, Difference (TAK-063 LS mean - placebo LS mean, change from baseline)", "setting": "[2]; 10 mg", "value": -2.7}, {"measurement": "Processing speed domain score, Difference (TAK-063 LS mean - placebo LS mean, change from baseline)", "setting": "[2]; 10 mg", "value": 0.7}, {"measurement": "Psychomotor speed domain score, Difference (TAK-063 LS mean - placebo LS mean, change from baseline)", "setting": "[2]; 10 mg", "value": -8.5}, {"measurement": "Reaction time domain score, Difference (TAK-063 LS mean - placebo LS mean, change from baseline)", "setting": "[2]; 10 mg", "value": -2.3}, {"measurement": "Reasoning domain score, Difference (TAK-063 LS mean - placebo LS mean, change from baseline)", "setting": "[2]; 10 mg", "value": 10.8}, {"measurement": "Sustained attention domain score, Difference (TAK-063 LS mean - placebo LS mean, change from baseline)", "setting": "[2]; 10 mg", "value": 0.7}, {"measurement": "Verbal memory domain score, Difference (TAK-063 LS mean - placebo LS mean, change from baseline)", "setting": "[2]; 10 mg", "value": -4.0}, {"measurement": "Visual memory domain score, Difference (TAK-063 LS mean - placebo LS mean, change from baseline)", "setting": "[2]; 10 mg", "value": -3.3}, {"measurement": "Working memory domain score, Difference (TAK-063 LS mean - placebo LS mean, change from baseline)", "setting": "[2]; 10 mg", "value": 1.1}, {"measurement": "Cognitive flexibility domain score, Difference (TAK-063 LS mean - placebo LS mean, change from baseline)", "setting": "[2]; 30 mg", "value": 0.2}, {"measurement": "Composite memory domain score, Difference (TAK-063 LS mean - placebo LS mean, change from baseline)", "setting": "[2]; 30 mg", "value": 2.8}, {"measurement": "Executive functioning domain score, Difference (TAK-063 LS mean - placebo LS mean, change from baseline)", "setting": "[2]; 30 mg", "value": 0.5}, {"measurement": "Processing speed domain score, Difference (TAK-063 LS mean - placebo LS mean, change from baseline)", "setting": "[2]; 30 mg", "value": 4.3}, {"measurement": "Psychomotor speed domain score, Difference (TAK-063 LS mean - placebo LS mean, change from baseline)", "setting": "[2]; 30 mg", "value": -1.7}, {"measurement": "Reaction time domain score, Difference (TAK-063 LS mean - placebo LS mean, change from baseline)", "setting": "[2]; 30 mg", "value": 3.1}, {"measurement": "Reasoning domain score, Difference (TAK-063 LS mean - placebo LS mean, change from baseline)", "setting": "[2]; 30 mg", "value": 6.4}, {"measurement": "Sustained attention domain score, Difference (TAK-063 LS mean - placebo LS mean, change from baseline)", "setting": "[2]; 30 mg", "value": 10.3}, {"measurement": "Verbal memory domain score, Difference (TAK-063 LS mean - placebo LS mean, change from baseline)", "setting": "[2]; 30 mg", "value": 12.4}, {"measurement": "Visual memory domain score, Difference (TAK-063 LS mean - placebo LS mean, change from baseline)", "setting": "[2]; 30 mg", "value": -5.2}, {"measurement": "Working memory domain score, Difference (TAK-063 LS mean - placebo LS mean, change from baseline)", "setting": "[2]; 30 mg", "value": 6.5}, {"measurement": "Cognitive flexibility domain score, Difference (TAK-063 LS mean - placebo LS mean, change from baseline)", "setting": "[2]; 100 mg", "value": -20.2}, {"measurement": "Composite memory domain score, Difference (TAK-063 LS mean - placebo LS mean, change from baseline)", "setting": "[2]; 100 mg", "value": -24.1}, {"measurement": "Executive functioning domain score, Difference (TAK-063 LS mean - placebo LS mean, change from baseline)", "setting": "[2]; 100 mg", "value": -17.8}, {"measurement": "Processing speed domain score, Difference (TAK-063 LS mean - placebo LS mean, change from baseline)", "setting": "[2]; 100 mg", "value": -6.1}, {"measurement": "Psychomotor speed domain score, Difference (TAK-063 LS mean - placebo LS mean, change from baseline)", "setting": "[2]; 100 mg", "value": -15.2}, {"measurement": "Reaction time domain score, Difference (TAK-063 LS mean - placebo LS mean, change from baseline)", "setting": "[2]; 100 mg", "value": -15.6}, {"measurement": "Reasoning domain score, Difference (TAK-063 LS mean - placebo LS mean, change from baseline)", "setting": "[2]; 100 mg", "value": 4.6}, {"measurement": "Sustained attention domain score, Difference (TAK-063 LS mean - placebo LS mean, change from baseline)", "setting": "[2]; 100 mg", "value": -7.0}, {"measurement": "Verbal memory domain score, Difference (TAK-063 LS mean - placebo LS mean, change from baseline)", "setting": "[2]; 100 mg", "value": -24.0}, {"measurement": "Visual memory domain score, Difference (TAK-063 LS mean - placebo LS mean, change from baseline)", "setting": "[2]; 100 mg", "value": -15.4}, {"measurement": "Working memory domain score, Difference (TAK-063 LS mean - placebo LS mean, change from baseline)", "setting": "[2]; 100 mg", "value": -3.8}, {"measurement": "Cognitive flexibility domain score, Difference (TAK-063 LS mean - placebo LS mean, change from baseline)", "setting": "[2]; 300 mg", "value": -30.9}, {"measurement": "Composite memory domain score, Difference (TAK-063 LS mean - placebo LS mean, change from baseline)", "setting": "[2]; 300 mg", "value": -26.9}, {"measurement": "Executive functioning domain score, Difference (TAK-063 LS mean - placebo LS mean, change from baseline)", "setting": "[2]; 300 mg", "value": -29.0}, {"measurement": "Processing speed domain score, Difference (TAK-063 LS mean - placebo LS mean, change from baseline)", "setting": "[2]; 300 mg", "value": -17.6}, {"measurement": "Psychomotor speed domain score, Difference (TAK-063 LS mean - placebo LS mean, change from baseline)", "setting": "[2]; 300 mg", "value": -18.0}, {"measurement": "Reaction time domain score, Difference (TAK-063 LS mean - placebo LS mean, change from baseline)", "setting": "[2]; 300 mg", "value": -10.3}, {"measurement": "Reasoning domain score, Difference (TAK-063 LS mean - placebo LS mean, change from baseline)", "setting": "[2]; 300 mg", "value": 0.5}, {"measurement": "Sustained attention domain score, Difference (TAK-063 LS mean - placebo LS mean, change from baseline)", "setting": "[2]; 300 mg", "value": -9.0}, {"measurement": "Verbal memory domain score, Difference (TAK-063 LS mean - placebo LS mean, change from baseline)", "setting": "[2]; 300 mg", "value": -26.7}, {"measurement": "Visual memory domain score, Difference (TAK-063 LS mean - placebo LS mean, change from baseline)", "setting": "[2]; 300 mg", "value": -17.2}, {"measurement": "Working memory domain score, Difference (TAK-063 LS mean - placebo LS mean, change from baseline)", "setting": "[2]; 300 mg", "value": -3.1}, {"measurement": "Cognitive flexibility domain score, Difference (TAK-063 LS mean - placebo LS mean, change from baseline)", "setting": "[2]; 1000 mg", "value": -19.6}, {"measurement": "Composite memory domain score, Difference (TAK-063 LS mean - placebo LS mean, change from baseline)", "setting": "[2]; 1000 mg", "value": -16.6}, {"measurement": "Executive functioning domain score, Difference (TAK-063 LS mean - placebo LS mean, change from baseline)", "setting": "[2]; 1000 mg", "value": -16.6}, {"measurement": "Processing speed domain score, Difference (TAK-063 LS mean - placebo LS mean, change from baseline)", "setting": "[2]; 1000 mg", "value": -17.9}, {"measurement": "Psychomotor speed domain score, Difference (TAK-063 LS mean - placebo LS mean, change from baseline)", "setting": "[2]; 1000 mg", "value": -18.7}, {"measurement": "Reaction time domain score, Difference (TAK-063 LS mean - placebo LS mean, change from baseline)", "setting": "[2]; 1000 mg", "value": -7.1}, {"measurement": "Reasoning domain score, Difference (TAK-063 LS mean - placebo LS mean, change from baseline)", "setting": "[2]; 1000 mg", "value": -0.5}, {"measurement": "Sustained attention domain score, Difference (TAK-063 LS mean - placebo LS mean, change from baseline)", "setting": "[2]; 1000 mg", "value": -5.0}, {"measurement": "Verbal memory domain score, Difference (TAK-063 LS mean - placebo LS mean, change from baseline)", "setting": "[2]; 1000 mg", "value": -10.0}, {"measurement": "Visual memory domain score, Difference (TAK-063 LS mean - placebo LS mean, change from baseline)", "setting": "[2]; 1000 mg", "value": -14.5}, {"measurement": "Working memory domain score, Difference (TAK-063 LS mean - placebo LS mean, change from baseline)", "setting": "[2]; 1000 mg", "value": -2.5}]}]}
